Data taken from patent US6943166B1, “Compositions comprising phosphodiesterase inhabitors for the treatment of sexual disfunction” (Lilly ICOS LLC., priority 1999, dated 2005).

Columns and labels:
healthy male volunteers = assay: Example 5: drug interaction study of Compound (I) with short-acting nitrates (hemodynamic effects); type: in vivo, human
Description: On the sixth or seventh day, the subjects received sublingual nitroglycerin (0.4 mg) while supine on a tilt table. […] The subjects were tilted to 70° head-up every 5 minutes for a total of 30 minutes with measurement of blood pressure and heart rate. There were no discontinuations among the twenty-two healthy male subjects (ages 19 to 60 years old) that entered this study.

patients in need thereof = assay: Example 6: two randomized, double-blinded placebo controlled studies, daily and on demand dosing; type: in vivo, human
Description: In two randomized, double-blinded placebo controlled studies, Compound (I) was administered to patients in need thereof at a range of doses, in both daily dosing and for on demand therapy, for sexual encounters and intercourse in the home setting.
Enhanced erectile function was determined by the International Index of Erectile Function (IIEF) (Rosen et al., Urology, 49, pp. 822-830 (1997)), diaries of sexual attempts, and a global satisfaction question.

[1] = tested on: patients with male erectile dysfunction; assay: Example 7: placebo-controlled on demand study in male erectile dysfunction (IIEF, SEP, safety); type: in vivo, human; settings: for patients who rated ability to maintain an erection (IIEF Question 4) as almost always or always: at endpoint
Description: A third clinical study was a randomized, double-blind, placebo-controlled study of Compound (I) administered “on demand” to patients with male erectile dysfunction. Compound (I) was administered over a period of eight weeks in the treatment of male erectile dysfunction (ED). Erectile dysfunction (ED) is defined as the persistent inability to attain and/or maintain an erection adequate to permit satisfactory sexual performance.
The study population consisted of 212 men, at least 18 years of age, with mild to severe erectile dysfunction. […] Treatment with all nitrates, azole antifungals (e.g., ketoconazole or itraconazole), warfarin, erythromycin, or antiandrogens was not allowed at any time during the study. No other approved or experimental medications, treatments, or devices used to treat ED were allowed. Forty-one subjects were administered a placebo.
The two primary efficacy variables were the ability of a subject to penetrate their partner and their ability to maintain an erection during intercourse, as measured by the International Index of Erectile Function (IIEF). The IIEF Questionnaire contains fifteen questions, and is a brief, reliable measure of erectile function. See R. C. Rosen et al., Urology, 49, pp. 822-830 (1997)
Secondary efficacy variables were IIEF domain scores for erectile function, orgasmic function, sexual desire, intercourse satisfaction, and overall satisfaction; the patient's ability to achieve an erection, ability to insert their penis into their partner's vagina, completion of intercourse with ejaculation, satisfaction with the hardness of their erection, and overall satisfaction, all as measured by the Sexual Encounter Profile (SEP) diary; and a global assessment question asked at the end of the treatment period. […]
The safety aspect of the study included all enrolled subjects, and was assessed by evaluating all reported adverse events, and changes in clinical laboratory values, vital signs, physical examination results, and electrocardiogram results.

PDEl = settings: package insert; cited from earlier work
[2] = tested on: patients taking organic nitrates; settings: combination with organic nitrates; cited from earlier work
[3] = 10 mg daily for seven days, sublingual nitroglycerin 0.4 mg

Row | Structure (SMILES) | changes in laboratory safety assessments or 12-lead ECGs (healthy male volunteers; 10 mg daily for seven days) | effect on mean maximal nitroglycerin-induced decrease in systolic blood pressure (healthy male volunteers; [3]) | effect on mean systolic blood pressure (healthy male volunteers; [3]) | impact on systolic blood pressure (healthy male volunteers; administered in conjunction with organic nitrates, human clinical studies) | efficacy for sexual encounters and intercourse (patients in need thereof; 10 mg dose) | side effects (patients in need thereof; 10 mg dose) | efficacy for sexual encounters and intercourse (patients in need thereof; doses from 5 to 20 mg) | flushing (patients in need thereof; doses from 5 to 20 mg) | percentage of successful intercourse attempts including ability to attain and maintain an erection (patients in need thereof; on demand and daily dosing regimens) | patients who rated ability to maintain an erection (IIEF Question 4) as almost always or always ([1]; 10 mg on demand) [%] | patients who rated ability to maintain an erection (IIEF Question 4) as almost always or always ([1]; 25 mg on demand) [%] | incidence of treatment-emergent adverse events ([1]; 2 to 25 mg on demand) | more potent inhibitor of PDE5 than PDE1 (PDEl) | blood pressure effect in patients taking organic nitrates [2]
1 | CN1CC(=O)N2[C@H](c3ccc4c(c3)OCO4)c3[nH]c4ccccc4c3C[C@@H]2C1=O [Compound (I), (6R,12aR)-2,3,6,7,12,12a-hexahydro-2-methyl-6-(3,4-methylenedioxyphenyl)-pyrazino[2′,1′:6,1]pyrido[3,4-b]indole-1,4-dione] | no Compound (I) changes | minimal, if any, effect | minimal, if any, effect | minimal impact | fully efficacious | minimal side effects | efficacious | less than 1% | significantly improved | 39.0 | 69.0 | appeared related to dose | – | –
2 | CCCc1nn(C)c2c(=O)[nH]c(-c3cc(S(=O)(=O)N4CCN(C)CC4)ccc3OCC)nc12 [sildenafil] | – | – | – | – | – | – | – | – | – | – | – | – | greater than 80 fold | clinically significant drop in blood pressure
